Reference: patent US20190292167A1, “HETEROAROMATIC COMPOUNDS USEFUL FOR THE TREATMENT OF PROLIFERATIVE DISEASES” (Syros Pharmaceuticals, Inc., priority 2013, published 2019)
Where two headings read alike, the source gives them in different places.

How the values were obtained:
CDK7 = biological target: T1, CDK7 (Homo sapiens, UniProt P50613); test: Adapta kinase assay (Life Technologies) against CDK7, co-factors cyclin H and MNAT1; assay type: biochemical; details: read-out: CDK7 Inhibition
T1 construct: purchased Life Technologies (Adapta kinase assay service)
T1 sequence (P50613 whole entry): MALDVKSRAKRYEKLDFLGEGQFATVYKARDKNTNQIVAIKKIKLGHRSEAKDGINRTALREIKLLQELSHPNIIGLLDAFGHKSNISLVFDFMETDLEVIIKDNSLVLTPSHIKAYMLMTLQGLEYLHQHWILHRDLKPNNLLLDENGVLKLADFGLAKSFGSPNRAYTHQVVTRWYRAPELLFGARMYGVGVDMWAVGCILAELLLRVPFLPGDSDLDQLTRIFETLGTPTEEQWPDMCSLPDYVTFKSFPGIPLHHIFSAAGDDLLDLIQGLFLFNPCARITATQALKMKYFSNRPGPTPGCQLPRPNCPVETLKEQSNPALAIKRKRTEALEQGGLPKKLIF
T1 sequence (P51946 whole entry partner): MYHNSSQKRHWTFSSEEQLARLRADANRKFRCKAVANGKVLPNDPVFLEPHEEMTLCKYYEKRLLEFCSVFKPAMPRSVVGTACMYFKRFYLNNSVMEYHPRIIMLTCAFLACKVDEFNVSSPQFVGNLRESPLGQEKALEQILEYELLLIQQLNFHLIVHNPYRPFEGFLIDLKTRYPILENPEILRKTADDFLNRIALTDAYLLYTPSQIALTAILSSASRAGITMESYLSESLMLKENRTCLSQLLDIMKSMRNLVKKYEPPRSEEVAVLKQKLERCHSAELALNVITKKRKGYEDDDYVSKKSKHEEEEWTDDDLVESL
T1 sequence (P51948 whole entry partner): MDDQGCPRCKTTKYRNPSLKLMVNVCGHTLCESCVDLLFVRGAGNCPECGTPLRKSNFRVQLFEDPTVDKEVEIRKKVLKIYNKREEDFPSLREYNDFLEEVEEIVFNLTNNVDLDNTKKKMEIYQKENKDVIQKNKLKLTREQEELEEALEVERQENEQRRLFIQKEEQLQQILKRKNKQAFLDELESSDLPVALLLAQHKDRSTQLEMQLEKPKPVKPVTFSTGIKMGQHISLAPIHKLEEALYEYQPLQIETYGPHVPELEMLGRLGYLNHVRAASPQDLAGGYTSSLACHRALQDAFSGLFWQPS
Protocol: Compounds of the invention were assayed for activity against CDK7 at Life Technologies™ (Grand Island, N.Y.) using their commercially available Adapta® kinase assay services. […] Details of the assay, including the substrate used for CDK7 kinase, are available on the Life Technologies web site (http://www.lifetechnologies.com/us/en/homellife-science/drug-discovery/target-and-lead-identification-and-validation/kinasebiology/kinase-activity-assays.html).
The co-factors used for the assay were cyclin H and MNAT1.

Jurkat = test: Inhibition of cell proliferation, CellTiter-Glo, 72 hour; assay type: cell-based; details: read-out: Inhibition of Proliferation of Jurkat Cells
Protocol: The following cancer cell lines were tested with the media conditions indicated: […]

[1] = Homo sapiens, Jurkat, 72 h, Blood cancer cell line, 72 hour

IC50 (CDK7) [nM] | IC50 (Jurkat; [1]) [nM] | Compound | IC50 (Jurkat; Blood cancer cell line, 72 hour) [nM] | IC50 (Jurkat; Homo sapiens, Jurkat, 72 h) [nM]
100 to 1000 | > 5000 | CN(C)C/C=C/C(=O)Nc1ccc(C(=O)N2CCC(Nc3ncc(Cl)c(-c4c[nH]cn4)n3)CC2)cc1 [Compound 127, (E)-N-(4-(4-((5-chloro-4-(1H-imidazol-4-yl)pyrimidin-2-yl)amino)piperidine-1-carbonyl)phenyl)-4-(dimethylamino)but-2-enamide] | – | –
< 100 | < 500 | C=CC(=O)Nc1ccc(NC(=O)C2CNCC(Nc3ncc(Cl)c(-c4c[nH]c5ccccc45)n3)C2)cc1 (racemic) [Compound 153, (+/−cis)-N-(4-acrylamidophenyl)-5-((5-chloro-4-(1H-indol-3-yl)pyrimidin-2-yl)amino)piperidine-3-carboxamide] | – | –
100 to 1000 | – | C=CC(=O)Nc1ccc(NC(=O)[C@@H]2C[C@@H](Nc3ncc(Cl)c(-c4c[nH]c5ccccc45)n3)CN(C)C2)cc1 (relative stereo) [Compound 159, (Trans)-N-(4-acrylamidophenyl)-5-((5-chloro-4-(1H-indol-3-yl)pyrimidin-2-yl)amino)-1-methylpiperidine-3-carboxamide] | – | –
100 to 1000 | < 500 | CN(C)C/C=C/C(=O)Nc1ccc(C(=O)N[C@@H]2CC[C@H](Nc3ncc(Cl)c(-c4cccnc4)n3)C2)cc1 (racemic) [Compound 123, N-((1R,3S)-3-((5-chloro-4-(pyridin-3-yl)pyrimidin-2-yl)amino)cyclopentyl)-4-((E)-4-(dimethylamino)but-2-enamido)benzamide and N-((1S,3R)-3-((5-chloro-4-(pyridin-3-yl)pyrimidin-2-yl)amino)cyclopentyl)-4-((E)-4-(dimethylamino)but-2-enamido)benzamide] | – | –
< 100 | < 500 | Cc1cc(C(=O)N2CCC(Nc3ncc(Cl)c(-c4c[nH]c5ccccc45)n3)CC2)ccc1N [Compound 59, (4-amino-3-methylphenyl)(4-(5-chloro-4-(1H-indol-3-yl)pyrimidin-2-ylamino)piperidin-1-yl)methanone] | – | –
< 100 | – | CN(C)C/C=C/C(=O)Nc1ccc(C(=O)N[C@H]2C[C@@H](Nc3ncc(Cl)c(-c4c[nH]c5ccccc45)n3)CN(C)C2)cc1 (racemic) [161/162, N-[(3S)-5-[[5-chloro-4-(1H-indol-3-yl)pyrimidin-2-yl]amino]-1-methyl-3-piperidyl]-4-[[(E)-4-(dimethylamino)but-2-enoyl]amino]benzamide] | – | –
> 1000 | 500 to 5000 | Cc1noc(C)c1-c1nc(NC2CCN(C(=O)c3ccc(NC(=O)/C=C/CN(C)C)cc3)CC2)ncc1Cl [Compound 121, (E)-N-(4-(4-((5-chloro-4-(3,5-dimethylisoxazol-4-yl)pyrimidin-2-yl)amino)piperidine-1-carbonyl)phenyl)-4-(dimethylamino)but-2-enamide] | – | –
100 to 1000 | 500 to 5000 | C=CC(=O)Nc1ccc(C(=O)NC2CC3(C2)CC(Nc2ncc(Cl)c(-c4c[nH]c5ccccc45)n2)C3)cc1 (stereo not shown) [Compound 138, 4-acrylamido-N-(6-((5-chloro-4-(1H-indol-3-yl)pyrimidin-2-yl)amino)spiro[3.3]heptan-2-yl)benzamide] | – | –
< 100 | < 500 | CN(C)C/C=C/C(=O)N(C)c1cccc(CN2CCC(Nc3ncc(Cl)c(-c4c[nH]c5ccccc45)n3)CC2)c1 [Compound 145, (E)-N-[3-[[4-[[5-chloro-4-(1H-indol-3-yl)pyrimidin-2-yl]amino]-1-piperidyl]methyl]phenyl]-4-(dimethylamino)-N-methyl-but-2-enamide] | – | –
< 100 | < 500 | Cc1[nH]c2ccccc2c1-c1nc(NC2CCN(C(=O)c3ccc(NC(=O)/C=C/CN(C)C)cc3)CC2)ncc1Cl [Compound 125, (E)-N-(4-(4-((5-chloro-4-(2-methyl-1H-indol-3-yl)pyrimidin-2-yl)amino)piperidine-1-carbonyl)phenyl)-4-(dimethylamino)but-2-enamide] | – | –
> 1000 | > 5000 | CN(C)C/C=C/C(=O)Nc1ccc(C(=O)N2CCC(Nc3ncc(Cl)c(-c4cc[nH]n4)n3)CC2)cc1 [Compound 117, (E)-N-(4-(4-((5-chloro-4-(1H-pyrazol-3-yl)pyrimidin-2-yl)amino)piperidine-1-carbonyl)phenyl)-4-(dimethylamino)but-2-enamide] | – | –
100 to 1000 | 500 to 5000 | CC(=O)Nc1ccc(CN2CCC(Nc3ncc(Cl)c(-c4c[nH]c5ccccc45)n3)CC2)cc1 [Compound 47, N-(4-((4-(5-chloro-4-(1H-indol-3-yl)pyrimidin-2-ylamino)piperidin-1-yl)methyl)phenyl)acetamide] | – | –
100 to 1000 | 500 to 5000 | CN(C)C/C=C/C(=O)NCCC(=O)Nc1cccc(Nc2ncc(Cl)c(-c3c[nH]c4ccccc34)n2)c1 [Compound 131, (E)-N-(3-(3-(5-chloro-4-(1H-indol-3-yl)pyrimidin-2-ylamino)phenylamino)-3-oxopropyl)-4-(dimethylamino)but-2-enamide] | – | –
< 100 | > 5000 | CN(C/C=C/C(=O)Nc1ccc(CN2CCC(Nc3ncc(Cl)c(-c4c[nH]c5ccccc45)n3)CC2)cc1)CC(N)=O [Compound 146, (E)-4-((2-amino-2-oxoethyl)(methyl)amino)-N-(4-((4-((5-chloro-4-(1H-indol-3-yl)pyrimidin-2-yl)amino)piperidin-1-yl)methyl)phenyl)but-2-enamide] | – | –
– | < 500 | CN(C)C/C=C/C(=O)Nc1ccc(C(=O)N[C@H]2CC[C@@H](Nc3ncc(Cl)c(-c4c[nH]c5ccccc45)n3)C2)cc1 [Compound 130, N-((1S,3R)-3-((5-chloro-4-(1H-indol-3-yl)pyrimidin-2-yl)amino)cyclopentyl)-4-((E)-4-(dimethylamino)but-2-enamido)benzamide] | – | –
– | > 5000 | Nc1ccc(C(=O)NC2CC3(C2)CC(Nc2ncc(Cl)c(-c4c[nH]c5ccccc45)n2)C3)cc1 (stereo not shown) [Compound 318, 4-amino-N-(6-((5-chloro-4-(1H-indol-3-yl)pyrimidin-2-yl)amino)spiro[3.3]heptan-2-yl)benzamide] | – | –
100 to 1000 | – | CS(=O)(=O)NC/C=C/C(=O)Nc1ccc(CN2CCC(Nc3ncc(Cl)c(-c4c[nH]c5ccccc45)n3)CC2)cc1 [Compound 158, (E)-N-(4-((4-((5-chloro-4-(1H-indol-3-yl)pyrimidin-2-yl)amino)piperidin-1-yl)methyl)phenyl)-4-(methylsulfonamido)but-2-enamide] | – | –
< 100 | – | C=CC(=O)Nc1ccc(NC(=O)[C@H]2C[C@@H](Nc3ncc(Cl)c(-c4c[nH]c5ccccc45)n3)CN(C)C2)cc1 (relative stereo) [Compound 160, (Cis)-N-(4-acrylamidophenyl)-5-((5-chloro-4-(1H-indol-3-yl)pyrimidin-2-yl)amino)-1-methylpiperidine-3-carboxamide] | – | –

Compound | IC50 (CDK7) [nM] | IC50 (Jurkat; [1]) [nM] | IC50 (Jurkat; Blood cancer cell line, 72 hour) [nM] | IC50 (Jurkat; Homo sapiens, Jurkat, 72 h) [nM]
C=CC(=O)Nc1ccc(CNC(=O)[C@@H]2CNC[C@H](Nc3ncc(Cl)c(-c4c[nH]c5ccccc45)n3)C2)cc1 (relative stereo) [Compound 152, (+/−cis)-N-(4-acrylamidobenzyl)-5-((5-chloro-4-(1H-indol-3-yl)pyrimidin-2-yl)amino)piperidine-3-carboxamide] | < 100 | – | 500 to 5000 | –
N#Cc1cnc(N[C@@H]2CCN(C(=O)c3ccc(NC(=O)/C=C/Cn4ccnc4)cc3)C2)nc1-c1c[nH]c2ccccc12 [Compound 109, (E)-N-(4-((R)-3-(5-cyano-4-(1H-indol-3-yl)pyrimidin-2-ylamino)pyrrolidine-1-carbonyl)phenyl)-4-(1H-imidazol-1-yl)but-2-enamide] | < 100 | – | – | < 500
